Results published in ChEMBL document CHEMBL5241136, “Design, synthesis and evaluation of heterocyclic 2-phenylacetate derivatives as water-soluble rapid recovery hypnotics” (Bioorg Med Chem Lett, 2023).

Test system: Rattus norvegicus
Assay: Anesthetic activity in rat assessed as time to behavioral recovery
Type: functional
Settings: not given

| SMILES | Time [s] |
| --- | --- |
| CC(C)c1cccc(C(C)C)c1O [PROPOFOL] | 335.8 |
| CCCOC(=O)Cc1ccc(OCC(=O)N(CC)CC)c(OCC)c1 [AZD-3043] | 56.9 |
| CCCOC(=O)Cc1ccc(OCC(=O)N(CC)CC)c(OC)c1 [PROPANIDID] | 79.9 |

Test system: not listed separately
Assay: n-Octanol/water partition coefficient, logP of the compound
Type: physicochemical
Settings: n-octanol/water; read-out: logP

| SMILES | logP |
| --- | --- |
| CCOC(=O)Cc1ccc(OCC(=O)N2CCCC2)c(OCC)c1 | 2.1 |
| CC(C)c1cccc(C(C)C)c1O [PROPOFOL] | 4.2 |
| CCCOC(=O)Cc1ccc(OCC(=O)N(CC)CC)c(OCC)c1 [AZD-3043] | 2.8 |

Test system: Rattus norvegicus
Assay: Anesthetic activity in rat assessed as time to walk
Type: functional
Settings: not given

| SMILES | Time [s] |
| --- | --- |
| CC(C)c1cccc(C(C)C)c1O [PROPOFOL] | 286.5 |
| CCCOC(=O)Cc1ccc(OCC(=O)N(CC)CC)c(OCC)c1 [AZD-3043] | 38.4 |
| CCCOC(=O)Cc1ccc(OCC(=O)N(CC)CC)c(OC)c1 [PROPANIDID] | 58.7 |

Test system: Mus musculus
Assay: Anesthetic activity in mouse assessed as concentration required to induce hypnotic effect
Type: functional
Settings: not given

| SMILES | ED50 [mg/kg] |
| --- | --- |
| CCOC(=O)Cc1ccc(OCC(=O)N2CCCC2)c(OCC)c1 | 56 |
| CC(C)c1cccc(C(C)C)c1O [PROPOFOL] | 11.9 |
| CCCOC(=O)Cc1ccc(OCC(=O)N(CC)CC)c(OCC)c1 [AZD-3043] | 17.6 |
| CCCOC(=O)Cc1ccc(OCC(=O)N(CC)CC)c(OC)c1 [PROPANIDID] | 20.9 |

Test system: not listed separately
Assay: Therapeutic index, ratio of LD50 for toxicity in mouse to HD50 for anesthetic activity in mouse assessed as concentration required to induce hypnotic effect
Settings: read-out: TI

| SMILES | selectivity ratio |
| --- | --- |
| CC(C)c1cccc(C(C)C)c1O [PROPOFOL] | 5.1 |

Test system: Oryctolagus cuniculus
Assay: Anesthetic activity in rabbit assessed as time to walk
Type: functional
Settings: not given

| SMILES | Time [s] |
| --- | --- |
| CC(C)c1cccc(C(C)C)c1O [PROPOFOL] | 425.3 |
| CCCOC(=O)Cc1ccc(OCC(=O)N(CC)CC)c(OCC)c1 [AZD-3043] | 89.6 |
| CCCOC(=O)Cc1ccc(OCC(=O)N(CC)CC)c(OC)c1 [PROPANIDID] | 124.5 |

Test system: Mus musculus
Assay: Anesthetic activity in mouse assessed as time to behavioral recovery
Type: functional
Settings: not given

| SMILES | Time [s] |
| --- | --- |
| CC(C)c1cccc(C(C)C)c1O [PROPOFOL] | 242.7 |
| CCCOC(=O)Cc1ccc(OCC(=O)N(CC)CC)c(OCC)c1 [AZD-3043] | 89.6 |
| CCCOC(=O)Cc1ccc(OCC(=O)N(CC)CC)c(OC)c1 [PROPANIDID] | 83.9 |

Test system: Mus musculus
Assay: Anesthetic activity in mouse assessed as time duration of loss of righting reflex
Type: functional
Settings: not given

| SMILES | Time [s] |
| --- | --- |
| CC(C)c1cccc(C(C)C)c1O [PROPOFOL] | 240.9 |
| CCCOC(=O)Cc1ccc(OCC(=O)N(CC)CC)c(OCC)c1 [AZD-3043] | 63.8 |
| CCCOC(=O)Cc1ccc(OCC(=O)N(CC)CC)c(OC)c1 [PROPANIDID] | 89.6 |

Test system: Oryctolagus cuniculus
Assay: Anesthetic activity in rabbit assessed as time duration of loss of righting reflex
Type: functional
Settings: not given

| SMILES | Time [s] |
| --- | --- |
| CC(C)c1cccc(C(C)C)c1O [PROPOFOL] | 326.6 |
| CCCOC(=O)Cc1ccc(OCC(=O)N(CC)CC)c(OCC)c1 [AZD-3043] | 221.6 |
| CCCOC(=O)Cc1ccc(OCC(=O)N(CC)CC)c(OC)c1 [PROPANIDID] | 265.4 |

Test system: not listed separately
Assay: Toxicity in rabbit assessed as lethal dose
Set-up: species or system Oryctolagus cuniculus
Settings: in vivo

| SMILES | LD50 [mg/kg] |
| --- | --- |
| CC(C)c1cccc(C(C)C)c1O [PROPOFOL] | 20.2 |

Target: GABA-A receptor; anion channel (Homo sapiens) (UniProt P14867+P47870+P18507+P28472+P48169+Q99928+Q9UN88+P34903+O00591+O14764+Q8N1C3+P18505+P78334+P47869+P31644+Q16445)
Assay: Inhibition of GABAA receptor (unknown origin) at 50 uM by radioligand receptor binding assay relative to control
Type: protein-complex assay
Settings: not given

| SMILES | inhibition [%] |
| --- | --- |
| CCOC(=O)Cc1ccc(OCC(=O)N2CCCC2)c(OCC)c1 | 26.5 |

Test system: not listed separately
Assay: Therapeutic index, ratio of LD50 for toxicity in rabbit to HD50 for anesthetic activity in rabbit assessed as concentration required to induce hypnotic effect
Settings: read-out: TI

| SMILES | selectivity ratio |
| --- | --- |
| CC(C)c1cccc(C(C)C)c1O [PROPOFOL] | 5.4 |

Test system: Oryctolagus cuniculus
Assay: Anesthetic activity in rabbit assessed as onset time
Type: functional
Settings: not given

| SMILES | Time [s] |
| --- | --- |
| CC(C)c1cccc(C(C)C)c1O [PROPOFOL] | 21.7 |
| CCCOC(=O)Cc1ccc(OCC(=O)N(CC)CC)c(OCC)c1 [AZD-3043] | 19.8 |
| CCCOC(=O)Cc1ccc(OCC(=O)N(CC)CC)c(OC)c1 [PROPANIDID] | 22.6 |

Test system: Oryctolagus cuniculus
Assay: Anesthetic activity in rabbit assessed as concentration required to induce hypnotic effect
Type: functional
Settings: not given

| SMILES | ED50 [mg/kg] |
| --- | --- |
| CC(C)c1cccc(C(C)C)c1O [PROPOFOL] | 3.7 |
| CCCOC(=O)Cc1ccc(OCC(=O)N(CC)CC)c(OCC)c1 [AZD-3043] | 4.6 |
| CCCOC(=O)Cc1ccc(OCC(=O)N(CC)CC)c(OC)c1 [PROPANIDID] | 5.1 |

Test system: Mus musculus
Assay: Anesthetic activity in mouse assessed as onset time
Type: functional
Settings: not given

| SMILES | Time [s] |
| --- | --- |
| CC(C)c1cccc(C(C)C)c1O [PROPOFOL] | 8.1 |
| CCCOC(=O)Cc1ccc(OCC(=O)N(CC)CC)c(OCC)c1 [AZD-3043] | 5.6 |
| CCCOC(=O)Cc1ccc(OCC(=O)N(CC)CC)c(OC)c1 [PROPANIDID] | 6.7 |

Test system: Rattus norvegicus
Assay: Anesthetic activity in rat assessed as onset time
Type: functional
Settings: not given

| SMILES | Time [s] |
| --- | --- |
| CC(C)c1cccc(C(C)C)c1O [PROPOFOL] | 10.1 |
| CCCOC(=O)Cc1ccc(OCC(=O)N(CC)CC)c(OCC)c1 [AZD-3043] | 12.4 |
| CCCOC(=O)Cc1ccc(OCC(=O)N(CC)CC)c(OC)c1 [PROPANIDID] | 16.3 |

Test system: Mus musculus
Assay: Anesthetic activity in mouse assessed as time to walk
Type: functional
Settings: not given

| SMILES | Time [s] |
| --- | --- |
| CC(C)c1cccc(C(C)C)c1O [PROPOFOL] | 46.5 |
| CCCOC(=O)Cc1ccc(OCC(=O)N(CC)CC)c(OCC)c1 [AZD-3043] | 22.9 |
| CCCOC(=O)Cc1ccc(OCC(=O)N(CC)CC)c(OC)c1 [PROPANIDID] | 56.3 |
